From paper PMC10046369, “Low-Affinity/High-Selectivity Dopamine Transport Inhibition Sufficient to Rescue Cognitive Functions in the Aging Rat” (Biomolecules, 2023)

Legend:
Experiment in all cases: biochemical
Parameters in all cases: KINOMEscan competition binding panel, per cent of control
Conditions in all cases: read-out: %Ctrl @ 2800nM
ASK1 = biological target: T1, ASK1 (Homo sapiens, UniProt Q99683)
T1 construct: gene MAP3K5
Outline: (§1)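 Competition binding panel (KINOMEscan) across 450 human kinases and disease-relevant mutants, run to the contractor's standard protocol. Values are % control: (test signal − positive control signal)/(negative control signal − positive control signal) × 100, with lower values indicating stronger binding.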

BRAF(V600E) = BRAF(V600E) (Homo sapiens, UniProt P15056, V600E)
Outline: as §1

CAMK1B = biological target: T2, CAMK1B (Homo sapiens, UniProt Q6P2M8)
T2 construct: gene PNCK
Outline: as §1

DLK = biological target: T3, DLK (Homo sapiens, UniProt Q12852)
T3 construct: gene MAP3K12
Outline: as §1

DRAK2 = biological target: T4, DRAK2 (Homo sapiens, UniProt O94768)
T4 construct: gene STK17B
Outline: as §1

EGFR(L747-T751del,Sins) = EGFR(L747-T751del,Sins) (Homo sapiens, UniProt P00533, DEL747-750/T751S)
Outline: as §1

EGFR(S752-I759del) = EGFR(S752-I759del) (Homo sapiens, UniProt P00533, DEL752-759)
Outline: as §1

ERK1 = biological target: T5, ERK1 (Homo sapiens, UniProt P27361)
T5 construct: gene MAPK3
Outline: as §1

FLT3(D835V) = FLT3(D835V) (Homo sapiens, UniProt P36888, D835V)
Outline: as §1

FLT3(D835Y) = FLT3(D835Y) (Homo sapiens, UniProt P36888, D835Y)
Outline: as §1

GCN2(Kin.Dom.2,S808G) = biological target: T6, GCN2(Kin.Dom.2,S808G) (Homo sapiens, UniProt Q9P2K8, S808G)
T6 construct: gene EIF2AK4; Kin.Dom.2
Outline: as §1

GSK3A = GSK3A (Homo sapiens, UniProt P49840)
Outline: as §1

HIPK4 = HIPK4 (Homo sapiens, UniProt Q8NE63)
Outline: as §1

IRAK4 = IRAK4 (Homo sapiens, UniProt Q9NWZ3)
Outline: as §1

MLK1 = biological target: T7, MLK1 (Homo sapiens, UniProt P80192)
T7 construct: gene MAP3K9
Outline: as §1

MRCKA = biological target: T8, MRCKA (Homo sapiens, UniProt Q5VT25)
T8 construct: gene CDC42BPA
Outline: as §1

MTOR = MTOR (Homo sapiens, UniProt P42345)
Outline: as §1

MYLK4 = MYLK4 (Homo sapiens, UniProt Q86YV6)
Outline: as §1

PAK3 = PAK3 (Homo sapiens, UniProt O75914)
Outline: as §1

PAK6 = PAK6 (Homo sapiens, UniProt Q9NQU5)
Outline: as §1

PCTK2 = biological target: T9, PCTK2 (Homo sapiens, UniProt Q00537)
T9 construct: gene CDK17
Outline: as §1

PIP5K1A = PIP5K1A (Homo sapiens, UniProt Q99755)
Outline: as §1

[1] = biological target: T10, RPS6KA5(Kin.Dom.1-N-terminal) (Homo sapiens, UniProt O75582)
T10 construct: Kin.Dom.1-N-terminal
Outline: as §1

STK36 = STK36 (Homo sapiens, UniProt Q9NRP7)
Outline: as §1

SgK110 = biological target: T11, SgK110 (Homo sapiens, UniProt P0C264)
T11 construct: gene SBK3
Outline: as §1

IRAK4, sequence (Q9NWZ3 whole entry): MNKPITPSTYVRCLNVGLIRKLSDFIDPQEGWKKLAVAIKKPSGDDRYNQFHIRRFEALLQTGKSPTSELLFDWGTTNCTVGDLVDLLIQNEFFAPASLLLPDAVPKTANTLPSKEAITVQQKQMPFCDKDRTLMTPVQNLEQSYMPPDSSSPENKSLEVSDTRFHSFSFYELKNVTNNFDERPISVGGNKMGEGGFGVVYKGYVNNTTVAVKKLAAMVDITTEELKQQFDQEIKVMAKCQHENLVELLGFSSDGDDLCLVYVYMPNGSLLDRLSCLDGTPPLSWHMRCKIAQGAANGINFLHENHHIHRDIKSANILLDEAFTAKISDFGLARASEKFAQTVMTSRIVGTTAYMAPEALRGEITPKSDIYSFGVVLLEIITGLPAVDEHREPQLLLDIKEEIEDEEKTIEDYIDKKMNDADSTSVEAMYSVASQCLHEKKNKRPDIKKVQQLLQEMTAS
EGFR(S752-I759del), sequence (P00533 with tags, fused parts or gaps DEL752-759): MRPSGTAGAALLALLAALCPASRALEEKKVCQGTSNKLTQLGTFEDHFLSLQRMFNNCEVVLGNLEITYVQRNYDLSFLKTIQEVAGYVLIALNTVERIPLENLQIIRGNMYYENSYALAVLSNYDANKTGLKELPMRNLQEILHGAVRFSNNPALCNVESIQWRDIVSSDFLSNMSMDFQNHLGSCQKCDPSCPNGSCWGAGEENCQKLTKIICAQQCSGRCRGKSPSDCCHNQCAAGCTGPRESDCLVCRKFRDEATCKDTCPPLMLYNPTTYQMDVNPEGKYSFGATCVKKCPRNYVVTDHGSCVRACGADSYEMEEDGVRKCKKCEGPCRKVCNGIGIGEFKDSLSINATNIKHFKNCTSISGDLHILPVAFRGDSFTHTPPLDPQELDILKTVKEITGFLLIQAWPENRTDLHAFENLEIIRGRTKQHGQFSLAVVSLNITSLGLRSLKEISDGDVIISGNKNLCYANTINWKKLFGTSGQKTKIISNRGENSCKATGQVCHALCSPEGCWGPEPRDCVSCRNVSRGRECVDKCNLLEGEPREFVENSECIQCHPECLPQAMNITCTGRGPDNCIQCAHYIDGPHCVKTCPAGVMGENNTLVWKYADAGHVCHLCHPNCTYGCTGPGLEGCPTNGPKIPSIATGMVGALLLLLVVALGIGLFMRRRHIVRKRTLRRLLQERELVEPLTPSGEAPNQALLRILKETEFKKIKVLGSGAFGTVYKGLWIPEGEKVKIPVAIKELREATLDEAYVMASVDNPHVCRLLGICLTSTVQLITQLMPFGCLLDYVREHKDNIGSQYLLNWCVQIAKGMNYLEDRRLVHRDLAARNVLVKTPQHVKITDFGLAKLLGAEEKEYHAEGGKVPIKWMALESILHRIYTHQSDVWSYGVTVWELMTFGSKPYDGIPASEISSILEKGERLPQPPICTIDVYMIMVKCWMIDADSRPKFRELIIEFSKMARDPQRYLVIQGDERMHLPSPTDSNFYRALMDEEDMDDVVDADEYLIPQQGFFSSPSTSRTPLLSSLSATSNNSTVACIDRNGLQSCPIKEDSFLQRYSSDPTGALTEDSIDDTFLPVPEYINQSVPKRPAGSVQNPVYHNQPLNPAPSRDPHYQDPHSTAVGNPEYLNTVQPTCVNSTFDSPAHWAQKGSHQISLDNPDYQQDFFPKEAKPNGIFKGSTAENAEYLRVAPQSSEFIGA
EGFR(L747-T751del,Sins), sequence (P00533 with tags, fused parts or gaps DEL747-750/T751S): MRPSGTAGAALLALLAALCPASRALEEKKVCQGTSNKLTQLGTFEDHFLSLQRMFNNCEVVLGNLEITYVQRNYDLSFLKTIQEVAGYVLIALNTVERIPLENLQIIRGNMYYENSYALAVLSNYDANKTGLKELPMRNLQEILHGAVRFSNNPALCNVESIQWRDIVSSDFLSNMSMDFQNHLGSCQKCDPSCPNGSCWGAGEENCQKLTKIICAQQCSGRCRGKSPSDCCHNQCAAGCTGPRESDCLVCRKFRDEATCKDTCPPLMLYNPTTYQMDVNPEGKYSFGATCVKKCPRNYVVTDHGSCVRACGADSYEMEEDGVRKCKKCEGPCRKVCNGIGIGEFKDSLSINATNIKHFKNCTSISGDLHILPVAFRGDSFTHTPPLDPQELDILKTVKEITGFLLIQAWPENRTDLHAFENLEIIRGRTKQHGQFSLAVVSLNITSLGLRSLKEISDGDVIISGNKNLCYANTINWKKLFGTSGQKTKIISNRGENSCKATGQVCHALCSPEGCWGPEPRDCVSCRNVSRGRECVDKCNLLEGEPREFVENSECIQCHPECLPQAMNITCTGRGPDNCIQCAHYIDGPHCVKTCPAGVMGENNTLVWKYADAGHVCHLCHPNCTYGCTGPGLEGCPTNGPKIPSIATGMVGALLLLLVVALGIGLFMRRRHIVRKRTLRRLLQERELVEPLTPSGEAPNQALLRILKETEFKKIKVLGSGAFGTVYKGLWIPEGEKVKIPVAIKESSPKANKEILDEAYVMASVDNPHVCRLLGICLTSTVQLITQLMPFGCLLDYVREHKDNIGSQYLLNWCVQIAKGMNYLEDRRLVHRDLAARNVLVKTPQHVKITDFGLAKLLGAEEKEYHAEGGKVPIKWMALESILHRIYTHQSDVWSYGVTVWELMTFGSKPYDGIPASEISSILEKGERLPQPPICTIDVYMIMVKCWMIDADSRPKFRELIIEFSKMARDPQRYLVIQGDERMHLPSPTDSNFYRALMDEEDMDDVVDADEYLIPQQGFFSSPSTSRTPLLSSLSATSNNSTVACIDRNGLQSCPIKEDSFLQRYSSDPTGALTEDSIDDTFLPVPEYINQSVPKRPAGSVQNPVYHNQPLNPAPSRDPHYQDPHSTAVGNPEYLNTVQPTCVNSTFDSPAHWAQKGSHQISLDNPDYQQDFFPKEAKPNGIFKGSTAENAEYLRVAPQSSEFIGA
T11 sequence (P0C264 whole entry): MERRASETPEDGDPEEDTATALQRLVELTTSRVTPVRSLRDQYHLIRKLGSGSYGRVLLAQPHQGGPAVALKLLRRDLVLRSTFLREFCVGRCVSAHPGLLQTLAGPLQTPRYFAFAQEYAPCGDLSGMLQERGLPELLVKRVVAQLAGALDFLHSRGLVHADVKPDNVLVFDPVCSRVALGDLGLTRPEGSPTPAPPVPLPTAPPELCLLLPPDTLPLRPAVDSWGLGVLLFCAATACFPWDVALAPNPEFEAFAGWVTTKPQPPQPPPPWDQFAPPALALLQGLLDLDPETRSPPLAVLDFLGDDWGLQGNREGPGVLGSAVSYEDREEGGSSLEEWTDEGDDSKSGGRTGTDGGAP
PIP5K1A, sequence (Q99755 whole entry): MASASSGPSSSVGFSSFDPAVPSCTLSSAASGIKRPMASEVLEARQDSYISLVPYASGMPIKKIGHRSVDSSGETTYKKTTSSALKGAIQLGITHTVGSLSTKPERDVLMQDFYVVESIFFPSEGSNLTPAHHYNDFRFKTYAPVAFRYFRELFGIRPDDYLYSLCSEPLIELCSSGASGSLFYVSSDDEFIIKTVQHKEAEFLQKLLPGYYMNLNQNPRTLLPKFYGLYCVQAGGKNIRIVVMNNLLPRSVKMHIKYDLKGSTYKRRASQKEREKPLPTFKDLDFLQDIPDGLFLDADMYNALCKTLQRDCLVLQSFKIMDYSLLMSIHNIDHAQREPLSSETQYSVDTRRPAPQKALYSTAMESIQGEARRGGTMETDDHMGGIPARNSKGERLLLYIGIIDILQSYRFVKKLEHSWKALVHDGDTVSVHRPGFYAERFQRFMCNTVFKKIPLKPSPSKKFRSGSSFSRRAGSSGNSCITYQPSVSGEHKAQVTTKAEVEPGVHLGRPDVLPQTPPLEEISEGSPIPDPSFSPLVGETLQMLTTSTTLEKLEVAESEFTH
BRAF(V600E), sequence (P15056 whole entry V600E): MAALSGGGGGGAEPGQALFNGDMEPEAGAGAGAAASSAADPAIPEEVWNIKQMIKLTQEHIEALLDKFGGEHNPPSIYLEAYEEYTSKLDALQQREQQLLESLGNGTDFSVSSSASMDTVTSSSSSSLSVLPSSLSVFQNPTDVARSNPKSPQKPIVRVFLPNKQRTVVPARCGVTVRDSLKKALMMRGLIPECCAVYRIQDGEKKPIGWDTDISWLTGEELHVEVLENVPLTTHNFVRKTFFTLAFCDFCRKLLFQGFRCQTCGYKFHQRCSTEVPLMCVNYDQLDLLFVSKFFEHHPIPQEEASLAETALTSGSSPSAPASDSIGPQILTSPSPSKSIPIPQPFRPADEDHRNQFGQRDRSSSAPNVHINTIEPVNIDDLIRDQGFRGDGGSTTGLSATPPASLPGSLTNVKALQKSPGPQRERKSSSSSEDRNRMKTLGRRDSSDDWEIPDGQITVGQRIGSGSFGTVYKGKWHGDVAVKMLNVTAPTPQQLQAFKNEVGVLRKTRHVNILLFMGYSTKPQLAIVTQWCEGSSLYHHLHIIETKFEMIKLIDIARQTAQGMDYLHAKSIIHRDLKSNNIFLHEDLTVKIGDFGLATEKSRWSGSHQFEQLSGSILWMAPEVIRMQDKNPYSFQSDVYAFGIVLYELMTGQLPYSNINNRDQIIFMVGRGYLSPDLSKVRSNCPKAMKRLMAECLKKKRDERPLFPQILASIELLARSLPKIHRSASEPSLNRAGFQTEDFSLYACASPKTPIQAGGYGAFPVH
T2 sequence (Q6P2M8 whole entry): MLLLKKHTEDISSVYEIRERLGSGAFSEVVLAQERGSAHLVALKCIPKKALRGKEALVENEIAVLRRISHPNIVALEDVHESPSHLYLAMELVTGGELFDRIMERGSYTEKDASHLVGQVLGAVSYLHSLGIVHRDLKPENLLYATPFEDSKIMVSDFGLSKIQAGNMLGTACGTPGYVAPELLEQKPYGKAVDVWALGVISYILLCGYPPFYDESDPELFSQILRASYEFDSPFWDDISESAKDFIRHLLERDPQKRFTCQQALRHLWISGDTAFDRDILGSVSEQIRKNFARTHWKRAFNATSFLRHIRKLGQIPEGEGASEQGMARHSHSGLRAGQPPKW

In the case of `[O-][S@@+](Cc1cncs1)C(c1ccccc1)c1ccccc1` [S-CE-123, (S)-5-((Benzhydrylsulfinyl)Methyl)Thiazole], the remaining binding at 2.8 µM (ASK1) was 84%, the remaining binding at 2.8 µM (BRAF(V600E)) was 100% and the remaining binding at 2.8 µM (CAMK1B) was 100%. The remaining binding at 2.8 µM (DLK) was 100%, the remaining binding at 2.8 µM (DRAK2) was 95% and the remaining binding at 2.8 µM (EGFR(L747-T751del,Sins)) was 57%. It also gave a remaining binding at 2.8 µM (EGFR(S752-I759del)) of 66%, a remaining binding at 2.8 µM (ERK1) of 91% and a remaining binding at 2.8 µM (FLT3(D835V)) of 100%. For the same molecule, the remaining binding at 2.8 µM (FLT3(D835Y)) was 99%, the remaining binding at 2.8 µM (GCN2(Kin.Dom.2,S808G)) was 100% and the remaining binding at 2.8 µM (GSK3A) was 99%. For the same molecule, the remaining binding at 2.8 µM (HIPK4) was 100%, the remaining binding at 2.8 µM (IRAK4) was 94% and the remaining binding at 2.8 µM (MLK1) was 100%. For the same molecule, the remaining binding at 2.8 µM (MRCKA) was 95%, the remaining binding at 2.8 µM (MTOR) was 100% and the remaining binding at 2.8 µM (MYLK4) was 89%. For the same molecule, the remaining binding at 2.8 µM (PAK3) was 70%, the remaining binding at 2.8 µM (PAK6) was 100% and the remaining binding at 2.8 µM (PCTK2) was 93%. The remaining binding at 2.8 µM (PIP5K1A) was 95%, the remaining binding at 2.8 µM [1] was 100% and the remaining binding at 2.8 µM (STK36) was 88%. For the same molecule, the remaining binding at 2.8 µM (SgK110) was 72%.
